# Data: paper PMC4686662 (Nature Communications, 2015)
# Read-outs that look alike come from different tables or passages of the source.
# Columns and labels:
# [1] = tested on: E. coli; test: MIC, broth microdilution, E. coli strains; format: cell-based, Escherichia coli
# Description: (§1) Antibacterial minimum inhibitory concentrations (MICs) were determined from two independent experiments using broth microdilution methods according to Clinical and Laboratory Standards Institute guidelines. […] Bacterial strains used were from GSK's culture collection.
# [2] = target: T1, S. aureus DNA gyrase (Staphylococcus aureus, UniProt P0A0K8+P20831); test: biochemical; format: biochemical; conditions: for Type of DNA breaks stabilized with S. aureus DNA gyrase: each compound 100 μM, supercoiled pBR322, full-length S. aureus gyrase
# T1 construct: Full-length S. aureus GyrA and GyrB were expressed in E. coli and purified as described; made in house; host or cells: E. coli
# Description: (§2) BlueJuice gel loading buffer (Invitrogen) was added. […] See Supplementary Fig. 15 for representative gels.
# [3] = target: T1, S. aureus DNA gyrase; test: S. aureus DNA gyrase supercoiling inhibition assay; format: biochemical
# Description: (§3) In vitro topoisomerase activity assays were performed as described with minor modifications. […] For E. coli DNA gyrase supercoiling assays, 3.4 nM of wild-type E. coli DNA gyrase (Inspiralis) was incubated with 500 ng relaxed pBR322 plasmid DNA in a 30-μl reaction containing the same buffer mixture but without the potassium glutamate. For S. aureus topo IV decatenation assays, 4 nM of S. aureus topo IV was incubated with 200 ng kinetoplast DNA in buffer as described by the manufacturer (Inspiralis). In E. coli topo IV decatenation assay, 0.125 nM of E. coli topo IV was incubated with kDNA as described in the protocol (Inspiralis). Human Top2α relaxation assays were performed as reported using 2 nM of enzyme. […] Reactions were analysed by electrophoresis in 1% w/v agarose gels followed by ethidium bromide staining. IC50 values, defined as the amount of compound that causes half-maximal inhibition, were determined by quantifying the DNA products using densitometry (VisionWorks, UVP) and fitting the data by nonlinear regression with GraFit software (Erythacus). Compound IC50 values reported are the averages of two to three determinations.
# [4] = target: T2, S. aureus Topo IV (Staphylococcus aureus, UniProt P0C1S7+P0C1U9); test: S. aureus topo IV decatenation inhibition assay; format: biochemical
# T2 construct: purchased Inspiralis
# Description: as §3
# [5] = tested on: S. aureus; test: MIC, broth microdilution, S. aureus strains; format: cell-based; conditions: Staphylococcus aureus
# Description: as §1
# (§4) The quinolone resistance-determining region (QRDR) or full-length of gyrA/B and parC/E were amplified by PCR from the resistant mutants and DNA sequenced using the following primer pairs (all 5′–3′ sequence): for S. aureus gyrA: […] and […]; gyrB […] and […]; parC […] and […], and parE […] and […], respectively. For S. pneumoniae gyrA: […] and […]; gyrB: […] and […]; parC: […] and […], and parE: […] and […], respectively. […] Mutations in etoposide-resistant transformants were confirmed by PCR and DNA analysis.
# [6] = target: T3, E. coli Topo IV (Escherichia coli, UniProt P0AFI2+P20083); test: E. coli topo IV decatenation inhibition assay; format: biochemical
# T3 construct: purchased Inspiralis
# Description: as §3
# [7] = tested on: S. pneumoniae; test: MIC, broth microdilution, S. pneumoniae strains; format: cell-based; conditions: Streptococcus pneumoniae
# Description: as §1, §4
# [8] = target: T4, E. coli DNA gyrase (Escherichia coli, UniProt P0AES4+P0AES6); test: E. coli DNA gyrase supercoiling inhibition assay; format: biochemical; set-up: E. coli full-length DNA gyrase subunits A and B (both N-terminally 6-His-tagged) produced in-house; 6-His (N); made in house
# Description: as §3
# [9] = target: T5, Human Top2α (Homo sapiens, UniProt P11388); test: Human Top2α relaxation inhibition assay; format: biochemical
# [10] = tested on: Klebsiella pneumoniae; test: MIC, broth microdilution, K. pneumoniae strains; format: cell-based; set-up: unit not given here; conditions: Klebsiella pneumoniae 1161486 tolC
# Description: as §1
# [11] = target: T5, Human Top2α; test: DNA cleavage assay with human Top2α
# Description: as §2
# [12] = tested on: Acinetobacter baumannii; test: MIC, broth microdilution, A. baumannii strains; format: cell-based; set-up: unit not given here; conditions: A. baumannii ACM1015 adeABC adeIJK (footnote c)
# Description: as §1
# [13] = target: T3, E. coli Topo IV; conditions: read-out: IC50, E. coli Topo IV decatanation; supplementary ref 3; cited from earlier work
# [14] = target: T4, E. coli DNA gyrase; conditions: concentrations showing similar intensities of DSB
# [15] = tested on: Haemophilus influenzae; test: MIC, broth microdilution, H. influenzae strains; format: cell-based; set-up: unit not given here
# Description: as §1
# [16] = target: T2, S. aureus Topo IV; set-up: method as in earlier work; conditions: read-out: IC50, S. aureus Topo IV decatanation; supplementary ref 4; cited from earlier work
# [17] = tested on: human Top2β; set-up: method as in PMID 26149691; conditions: cited from earlier work
# [18] = Escherichia coli, E. coli 7623, read-out: MIC
# [19] = Escherichia coli, E. coli 7623 ΔtolC
# [20] = S. aureus RN4220 (parent), read-out: MIC
# [21] = S. aureus RN4220 GyrB ΔT403-K406, read-out: MIC
# [22] = S. pneumoniae 1629, read-out: MIC
# [23] = S. pneumoniae 1629 GyrB ΔL407–S410, read-out: MIC
Compound,"MIC [5, 20] [mg/L]",MIC ([5]; S. aureus RN4220 GyrB D437A) [mg/L],MIC ([5]; S. aureus RN4220 GyrB D437N) [mg/L],MIC ([5]; S. aureus RN4220 GyrB D437V) [mg/L],MIC ([5]; S. aureus RN4220 GyrB P456L) [mg/L],"MIC [5, 21] [mg/L]",further results
"COc1cc([C@@H]2c3cc4c(cc3[C@@H](O[C@@H]3O[C@@H]5CO[C@@H](C)O[C@H]5[C@H](O)[C@H]3O)[C@H]3COC(=O)[C@H]23)OCO4)cc(OC)c1O [Etoposide, etoposide]",64,256,128,256,256,256,"MIC [1, 18]: > 256 mg/L; MIC [1, 19]: 0.75 mg/L; EC50 [2]: 107 µM; Type of DNA breaks stabilized with S. aureus DNA gyrase [2]: both SSB and DSB; IC50 [3]: 48 µM; Plateau of fitted IC50 curve, % of maximal inhibition ([3]; S. aureus DNA gyrase supercoiling): ~75%; IC50 [4]: 246 µM; Plateau of fitted IC50 curve, % of maximal inhibition [4]: ~50%; Plateau of fitted IC50 curve, % of maximal inhibition ([6]; E. coli Topo IV decatenation): ~75%; IC50 ([6]; read-out: IC50, E. coli Topo IV decatanation): 107 µM; MIC [7, 22]: 2 mg/L; MIC ([7]; S. pneumoniae 1629 GyrB R447C): 16 mg/L; MIC [7, 23]: 16 mg/L; IC50 [8]: 134 µM; Plateau of fitted IC50 curve, % of maximal inhibition ([8]; E. coli DNA gyrase supercoiling): approx. 60%"
"COc1cc(NS(C)(=O)=O)ccc1Nc1c2ccccc2nc2ccccc12 [Amsacrine, amsacrine]",> 128,32,> 128,64,32,128,
"C[C@@H]1CN2c3ccc([N+](=O)[O-])cc3CC3(C(=O)NC(=O)NC3=O)[C@H]2[C@H](C)O1 [QPT-1, quinoline pyrimidine trione-1]",0.5,2,4,,,,"IC50 [9]: > 500 µM; MIC ([1]; Escherichia coli 7623 tolC): 0.063 mg/L; MIC [1, 18]: 8 mg/L; MIC [1, 19]: 0.063 mg/L; MIC [10]: 0.125; Activity against human Top2α [11]: does not have detectable activity; EC50 [11]: > 800 µM; EC50 [2]: 8.8 µM; Type of DNA breaks stabilized with S. aureus DNA gyrase [2]: DSB; MIC [12]: 0.125; IC50 [13]: 30 µM; DNA cleavage activity relative to the (+) enantiomer (more active) [14]: ~ 30 fold; MIC ([15]; Haemophilus influenzae H128): ≤ 0.125; MIC ([15]; Haemophilus influenzae H128 acrB): ≤ 0.125; IC50 [8]: 0.65 µM"
"O=C1c2c(O)ccc(O)c2C(=O)c2c(NCCNCCO)ccc(NCCNCCO)c21 [Mitoxantrone, mitoxantrone]",32,8,32,8,4,6,
"COc1cccc2c1C(=O)c1c(O)c3c(c(O)c1C2=O)C[C@@](O)(C(C)=O)C[C@@H]3O[C@H]1C[C@H](N)[C@H](O)[C@H](C)O1 [Daunorubicin, daunorubicin]",8,8,8,8,4,1.5,
COc1ccc2ncc(C#N)c(CCN3CCC(NCc4cc5c(cn4)OCS5)CC3)c2c1 [GSK299423],0.016,0.125,0.125,0.125,0.125,0.016,
"COc1c(N2C[C@@H]3CCCN[C@@H]3C2)c(F)cc2c(=O)c(C(=O)O)cn(C3CC3)c12 [Moxifloxacin, moxifloxacin]",0.063,0.063,0.063,,,,"IC50 [16]: 3.8 µM; MIC [1, 18]: ≤ 0.016 mg/L; MIC [1, 19]: ≤ 0.016 mg/L; Type of DNA breaks stabilized with S. aureus DNA gyrase [2]: DSB; MIC [7, 22]: 0.031 mg/L; MIC ([7]; S. pneumoniae 1629 GyrB R447C): 0.094 mg/L; MIC [7, 23]: 0.047 mg/L"
C[C@@H]1CN2c3c(cc4c(N5C(=O)OC[C@@H]5C)noc4c3F)CC3(C(=O)NC(=O)NC3=O)[C@H]2[C@H](C)O1 [AZD9014],,,,,,,Activity against human Top2β [17]: low activity
"Cc1c2ccncc2c(C)c2c1[nH]c1ccccc12 [Ellipticine, ellipticine]",1,1,1,1,1,1,
"COc1cc([C@@H]2c3cc4c(cc3[C@@H](O[C@@H]3O[C@@H]5CO[C@@H](c6cccs6)O[C@H]5[C@H](O)[C@H]3O)[C@H]3COC(=O)[C@H]23)OCO4)cc(OC)c1O [Teniposide, teniposide]",16,32,32,64,32,32,
"COc1cccc2c1C(=O)c1c(O)c3c(c(O)c1C2=O)C[C@@](O)(C(=O)CO)C[C@@H]3O[C@H]1C[C@H](N)[C@H](O)[C@H](C)O1 [Doxorubicin, doxorubicin]",8,8,8,8,4,3,
